Source: the supplement of paper PMC8671470

Tests used:
Conditions in all cases: 72 h
BV-173 [1] = test system: BV-173
Procedure, shortened: (§1)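 Fifteen myeloid leukaemia cell lines were seeded in RPMI 1640 at densities titrated to the linear growth range and placed in 384-well plates with acoustically pre-printed compounds at five tenfold doses from 1 to 10,000 nM, in duplicate. After 72 h at 37 °C with 5% CO2, luminescent ATP viability was normalised to vehicle and to a positive control at 10 µM, and curves were fitted with a four-parameter log-logistic model. The IC50 was obtained from these fits.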

HEL [2] = test system: HEL
Procedure, shortened: as §1

HL-60 [3] = test system: HL-60
Procedure, shortened: as §1

K-562 [4] = test system: K-562
Procedure, shortened: as §1

KCL-22 [5] = test system: KCL-22
Procedure, shortened: as §1

KG-1 [6] = test system: KG-1
Procedure, shortened: as §1

KU-812 [7] = test system: KU-812
Procedure, shortened: as §1

LAMA-84 [8] = test system: LAMA-84
Procedure, shortened: as §1

ML-2 [9] = test system: ML-2
Procedure, shortened: as §1

MOLM-13 [10] = test system: MOLM-13
Procedure, shortened: as §1

MV4-11 [11] = test system: MV4-11
Procedure, shortened: as §1

Mono-Mac-6 [12] = test system: Mono-Mac-6
Procedure, shortened: as §1

NOMO-1 [13] = test system: NOMO-1
Procedure, shortened: as §1

SHI-1 [14] = test system: SHI-1
Procedure, shortened: as §1

THP-1 [15] = test system: THP-1
Procedure, shortened: as §1

BV-173 [16] = test: cell viability (% survival relative to DMSO control, bortezomib = 0%); higher = less cytotoxic
Procedure, shortened: (§2)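 After 72 h at 37 °C with 5% CO2, cell viability in 384-well plates was measured by CellTiter-Glo luminescence. The plates held compounds pre-printed at 1, 10, 100, 1000 or 10000 nM in duplicate, and cells from 10 AML and 5 CML lines seeded at densities titrated to linear growth. Percent survival is the duplicate mean, normalised to vehicle as 100% and a 10 µM positive control as 0%.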

HEL [17] = test: as above
Procedure, shortened: as §2

HL-60 [18] = test: as above
Procedure, shortened: as §2

K-562 [19] = test: as above
Procedure, shortened: as §2

KCL-22 [20] = test: as above
Procedure, shortened: as §2

KG-1 [21] = test: as above
Procedure, shortened: as §2

KU-812 [22] = test: as above
Procedure, shortened: as §2

LAMA-84 [23] = test: as above
Procedure, shortened: as §2

ML-2 [24] = test: as above
Procedure, shortened: as §2

MOLM-13 [25] = test: as above
Procedure, shortened: as §2

MV4-11 [26] = test: as above
Procedure, shortened: as §2

Mono-Mac-6 [27] = test: as above
Procedure, shortened: as §2

NOMO-1 [28] = test: as above
Procedure, shortened: as §2

SHI-1 [29] = test: as above
Procedure, shortened: as §2

THP-1 [30] = test: as above
Procedure, shortened: as §2

CN(Cc1cnc2nc(N)nc(N)c2n1)c1ccc(C(=O)N[C@@H](CCC(=O)O)C(=O)O)cc1 [Methotrexate]
Conditions	IC50 (cell viability) [nM]
BV-173 [1]	32.3
HEL [2]	3.7
HL-60 [3]	7.01
K-562 [4]	33
KCL-22 [5]	12.6
KG-1 [6]	> 10000
KU-812 [7]	15.7
LAMA-84 [8]	4.72
ML-2 [9]	9.65
MOLM-13 [10]	7.57
MV4-11 [11]	8.96
Mono-Mac-6 [12]	8.26
NOMO-1 [13]	51.5
SHI-1 [14]	80.8
THP-1 [15]	31.9

cell viability [%]
Conditions	1 nM	10 nM	100 nM	1000 nM	10000 nM
BV-173 [16]	107	98.3	2.71	1.64	2.28
HEL [17]	102	18.6	27.9	6.63	7.79
HL-60 [18]	81.5	32	5.38	7.28	8.39
K-562 [19]	86.9	103	13.3	18.9	21.7
KCL-22 [20]	97.1	59.2	40.4	21.1	20.7
KG-1 [21]	104	93.8	98.9	94.3	92.9
KU-812 [22]	99	63.1	38.9	33.3	42.5
LAMA-84 [23]	98.8	34	22.7	19.4	20.8
ML-2 [24]	109	49.7	3.59	3.44	4.58
MOLM-13 [25]	88.1	33.1	0.91	0.853	0.962
MV4-11 [26]	112	45.4	3.4	2.47	3.21
Mono-Mac-6 [27]	105	44.3	5.95	7.21	7.86
NOMO-1 [28]	108	94.8	40.4	29.4	30.8
SHI-1 [29]	83.7	90.7	44.4	35.8	47.1
THP-1 [30]	99.8	96.6	13	10.3	11.8
